We go through 26 compounds from patent US11485736B2 (KSQ Therapeutics, Inc., priority 2018, dated 2022).

Sequence of USP1/UAF1 (O94782 whole entry): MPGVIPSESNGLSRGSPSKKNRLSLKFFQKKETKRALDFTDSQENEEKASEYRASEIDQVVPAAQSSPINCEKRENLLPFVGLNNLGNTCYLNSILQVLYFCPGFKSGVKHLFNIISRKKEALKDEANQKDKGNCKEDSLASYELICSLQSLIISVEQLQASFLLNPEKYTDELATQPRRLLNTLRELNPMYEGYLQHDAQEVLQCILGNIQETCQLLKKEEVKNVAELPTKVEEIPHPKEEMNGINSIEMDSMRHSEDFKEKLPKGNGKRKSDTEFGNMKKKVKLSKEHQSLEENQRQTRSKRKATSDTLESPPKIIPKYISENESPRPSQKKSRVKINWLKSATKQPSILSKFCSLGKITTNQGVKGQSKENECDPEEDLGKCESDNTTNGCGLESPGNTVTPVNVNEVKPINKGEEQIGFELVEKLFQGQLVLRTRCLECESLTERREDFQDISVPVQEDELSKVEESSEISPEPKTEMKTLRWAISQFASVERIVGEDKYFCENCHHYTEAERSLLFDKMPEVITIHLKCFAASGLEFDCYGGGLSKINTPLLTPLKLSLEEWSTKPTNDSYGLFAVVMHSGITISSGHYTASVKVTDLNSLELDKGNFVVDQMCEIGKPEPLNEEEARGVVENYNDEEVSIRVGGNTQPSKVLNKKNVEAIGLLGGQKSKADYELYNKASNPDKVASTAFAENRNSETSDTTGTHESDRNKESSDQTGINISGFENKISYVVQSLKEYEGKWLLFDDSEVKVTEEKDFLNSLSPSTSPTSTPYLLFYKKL
Sequence of USP1/UAF1 (Q8TAF3 whole entry partner): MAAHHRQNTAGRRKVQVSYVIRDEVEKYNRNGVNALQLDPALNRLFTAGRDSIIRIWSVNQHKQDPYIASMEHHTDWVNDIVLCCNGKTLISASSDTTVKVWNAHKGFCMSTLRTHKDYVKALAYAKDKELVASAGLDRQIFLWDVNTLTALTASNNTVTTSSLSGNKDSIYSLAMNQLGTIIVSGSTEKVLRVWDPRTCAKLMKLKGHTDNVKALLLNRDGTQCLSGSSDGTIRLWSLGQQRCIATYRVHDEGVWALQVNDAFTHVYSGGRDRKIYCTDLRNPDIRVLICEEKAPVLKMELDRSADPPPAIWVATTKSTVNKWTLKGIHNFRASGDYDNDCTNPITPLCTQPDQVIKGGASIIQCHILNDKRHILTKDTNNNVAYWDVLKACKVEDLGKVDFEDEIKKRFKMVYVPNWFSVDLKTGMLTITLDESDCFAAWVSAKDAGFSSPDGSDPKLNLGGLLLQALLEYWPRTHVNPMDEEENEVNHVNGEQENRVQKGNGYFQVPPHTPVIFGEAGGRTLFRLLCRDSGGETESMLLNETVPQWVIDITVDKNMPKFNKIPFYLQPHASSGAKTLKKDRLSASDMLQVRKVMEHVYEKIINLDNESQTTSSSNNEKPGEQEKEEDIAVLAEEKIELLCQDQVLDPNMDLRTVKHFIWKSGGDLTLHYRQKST

The first assay addresses USP1/UAF1 (Homo sapiens (Human), UniProt O94782). Description: Deubiquitination assay for USP1/UAF1 activity (ubiquitin-rhodamine 110). Format: biochemical. The following applies: Table 2; 0.05 nM USP1/UAF1, 150 nM ubiquitin-rhodamine. The method, then: Certain Compounds of the Disclosure were assessed for USP1/UAF1 activity in a Ubiquitin Rhodamine assay modified from those described previously.
Deubiquitinase activity was measured using ubiquitin-rhodamine 110 as a substrate. Cleavage of the amide bond between rhodamine and the c-terminal glycine of ubiquitin yields an increase in fluorescence signal. The assay was conducted in 20 ul total volume of assay buffer (50 mM Tris-HCl, pH 7.8, 0.5 mM EDTA, 0.01% Bovine Serum Albumin, 1 mM DTT, 0.01% Tween-20), and 0.05 nM USP1/UAF1 enzyme.
Compounds, dissolved in DMSO were tested in dose response format, beginning at 10 uM.
Compounds depicted below were added to enzyme/assay buffer mix and incubated 10 min.
Data for all assay formats was calculated as percent inhibition compared with control wells. […] IC50 values were calculated using the standard four parameter curve fitting algorithm in either Prism GraphPad (La Jolla, Calif.) software, or Collaborative Drug Discovery (Burlingame, Calif.) CDD Vault.
For `COc1nccc(C)c1-c1ncc2cnn(Cc3ccc(-c4nc(C(F)(F)F)cn4C)cc3)c2n1` [drawing 711], the IC50 fell in the range of 10 to 100 nM.
On the same count and under the same terms, the same measure for `Cc1cc(C(F)F)nn1-c1ccc(Cn2ncc3cnc(-c4cccnc4C(C)C)nc32)cc1` [drawing 710]: 10 to 100 nM; for `COc1ncnc(C2CC2)c1-c1ncc2cnn(Cc3ccc(-c4nc(C(F)(F)F)cn4C)cc3)c2n1` [drawing 720]: 10 to 100 nM; for `CC(C)c1ccccc1-c1ncc2cnn(C(C)c3ccc(-c4nc(C(F)(F)F)cn4C)cc3)c2n1` (centres unmarked) [drawing 726]: less than 10 nM.
The same measure, in the same setting: the same measure for `CC(C)c1ccccc1-c1ncc2cnn(Cc3ccc(-c4nc(C(F)(F)F)cn4C4CN(C)C4)cc3)c2n1` [drawing 725]: less than 10 nM.

The same assay, now with this note: Table 3; 0.05 nM USP1/UAF1, 150 nM ubiquitin-rhodamine.
`CCn1cc(C(F)(F)F)nc1-c1ccc(Cn2ncc3cnc(-c4c(OC5CC5)ncnc4C4CC4)nc32)cc1` [drawing 750] had a half-inhibitory concentration (IC50) of 10 to 100 nM.
Same read-out and setting: the same measure for `COc1ncnc(C2CC2)c1-c1ncc2cnn(Cc3ccc(-c4nc(C(F)F)n(C)n4)cc3)c2n1`: greater than 200 nM.
Take `COc1ncnc(C2CC2)c1-c1ncc2cnn(Cc3ccc(-c4nc(C(F)(F)F)cn4C4CCC4)cc3)c2n1` [drawing 732]: the IC50 was less than 10 nM.
Turning to `COc1ncnc(C2CC2)c1-c1ncc2cnn(Cc3ccc(-n4nc(C(F)(F)F)cc4OC)cc3)c2n1` [drawing 737], the IC50 was in the range of 10 to 100 nM.
Turning to `COc1ncnc(C2(C)CC2)c1-c1ncc2cnn(Cc3ccc(-c4nc(C(F)(F)F)cn4C)cc3)c2n1` [drawing 769], the IC50 was in the range of 10 to 100 nM.
Consider `COc1ncnc(C2CC2)c1-c1ncc2cnn(Cc3ccc(-c4nc(C(F)(F)F)c[nH]4)cc3)c2n1` [drawing 765], for which the IC50 lay within 10 to 100 nM.
On the same count and under the same terms, then `CCn1cc(C(F)(F)F)nc1-c1ccc(Cn2ncc3cnc(-c4c(OC5CCC5)ncnc4C4CC4)nc32)cc1` [drawing 752], with 10 to 100 nM; and `CCn1cc(C(F)(F)F)nc1-c1ccc([C@@H](C)n2ncc3cnc(-c4c(OC)ncnc4C4CC4)nc32)cc1` (single isomer, unassigned) [drawing 747], with 10 to 100 nM; and `CCn1cc(C(F)(F)F)nc1-c1ccc(Cn2ncc3cnc(-c4c(OCCF)ncnc4C4CC4)nc32)cc1` [drawing 741], with 10 to 100 nM.
Take `COc1ncnc(C2CC2)c1-c1ncc2cnn(Cc3ccc(-c4nc(C(F)(F)F)cn4C4CC4)cc3)c2n1` [drawing 739]: the 50% inhibitory concentration (IC50) was 10 to 100 nM.
Still for that read-out and setting: then `CCn1cc(C(F)(F)F)nc1-c1ccc(Cn2ncc3cnc(-c4c(OC)ncnc4OC)nc32)cc1` [drawing 755], with 10 to 100 nM.
In turn, `CCOc1ncnc(OCC)c1-c1ncc2cnn(Cc3ccc(-c4nc(C(F)(F)F)cn4CC)cc3)c2n1` [drawing 733] had an IC50 of less than 10 nM.

Still in this assay, the particulars now being: Table 4; 0.05 nM USP1/UAF1, 150 nM ubiquitin-rhodamine.
On to `CCn1cc(C(F)(F)F)nc1-c1ccc(Cn2nc(OC)c3cnc(-c4c(OC)ncnc4C4CC4)nc32)cc1` [drawing 820], for which the IC50 is 10 to 100 nM.
As for `CCn1c(-c2ccc(Cn3nc(OC)c4cnc(-c5c(OC)ncnc5C5CC5)nc43)cc2)nc(C(F)(F)F)c1Br` [drawing 811], the IC50 is 10 to 100 nM.
The same measure, in the same setting: the same measure for `CCOc1nn(Cc2ccc(-c3nc(C(F)(F)F)cn3CC)cc2)c2nc(-c3c(OC)ncnc3C3CC3)ncc12` [drawing 816]: 10 to 100 nM; for `COc1ncnc(C2CC2)c1-c1ncc2nc(C(C)C)n(Cc3ccc(-n4nc(C(F)(F)F)cc4C)cc3)c2n1` [drawing 824]: 100 to 200 nM.
On the same count and under the same terms, the same measure for `CCc1nc2cnc(-c3c(OC)ncnc3C3CC3)nc2n1Cc1ccc(-c2nc(C(F)(F)F)cn2C(C)C)cc1` [drawing 808]: 10 to 100 nM.
On the same count and under the same terms, the same measure for `COc1ncnc(C2CC2)c1-c1ncc2nnn(Cc3ccc(-c4nc(C(F)(F)F)cn4C)cc3)c2n1` [drawing 828]: 10 to 100 nM.
Take `COc1ncnc(C2CC2)c1-c1ncc2ncn(Cc3ccc(-c4nc(C(F)(F)F)cn4C)cc3)c2n1` [drawing 831]: the IC50 was 100 to 200 nM.
`COc1ncnc(C2CC2)c1-c1ncc2c(OC)nn(C(C)c3ccc(-c4nc(C(F)(F)F)cn4CCF)cc3)c2n1` (centres unmarked) [drawing 812]: the IC50 lay within 10 to 100 nM.
Consider `COc1ncnc(C2CC2)c1-c1ncc2nc(C)n(Cc3ccc(-c4nc(C(F)(F)F)cn4C)cc3)c2n1` [drawing 821], for which the IC50 was 100 to 200 nM.
